Series [1] has as its system primary cultured macrophages. In words: Incorporation of XG-102 into primary cultured macrophages, antibody detection. It counts as cell-based. The following applies: incubated and extensively washed; specific antibody. The method, then:
FIG. 5: (A): Primary cultured macrophages were incubated with XG-102 (SEQ ID NO: 233) and extensively washed. […] (B): Mice were injected i.v. with 0.1 mg/kg FITC-D-TAT (SEQ ID NO: 4 plus FITC) and were sacrificed 24 hours later with PAF perfusion through the heart. Slices were obtained after cryoprotection using cryostat.

The next series concerns liver, Kupffer cells. In words: Immunostaining against XG-102 in the liver after i.v. injection. Type of series: in vivo, rat. The following applies: 1 mg/kg i.v., 24 hours. The source says:
Revelation was done using DAB substrate.

In the next series the test system is Aβ1-40 and Aβ1-42 levels. In words: Aβ1-40 and Aβ1-42 ELISA in brain homogenate fractions and CSF of hAPP Tg mice. It counts as in vivo, mouse. The method, then:
a) METHODS • i) Introduction • The study was designed to evaluate the efficacy of the test substance (XG-102, SEQ ID NO: 233) on behavioral, biochemical and histological markers using 5 months (±2 weeks) old female hAPP Tg mice. Therefore, mice were treated every two or three weeks up to 4 months and in the end of the treatment period behavior was evaluated in the Morris Water Maze. At sacrifice brain, CSF and blood were collected. Aβ40 and Aβ42 levels were determined in four different brain homogenate fractions as well as in CSF of Tg mice. Plaque load was quantified in the cortex and the hippocampus of 8 Tg animals per treatment group.
iv) Treatment • […] female hAPP transgenic mice were treated with either 0.1 mg/kg b.w./every two weeks or 10 mg/kg b.w./every three weeks of the test substance XG-102 (SEQ ID NO: 233) in two different dosages (n=12/group) or treated with the vehicle (n=12) s.c. once every three weeks over four months.
vi) Tissue Sampling • At the end of the treatment period, and following all behavioral testing, all remaining mice (n=28) were sacrificed. Therefore, all mice were sedated by standard inhalation anesthesia (Isofluran, Baxter) as described in SOP MET030. Cerebrospinal fluid (CSF) was obtained by blunt dissection and exposure of the foramen magnum. Upon exposure, a Pasteur pipette was inserted to the approximate depth of 0.3-1 mm into the foramen magnum. CSF was collected by suctioning and capillary action until flow fully ceases. Two aliquots of each sample were immediately frozen and kept at −80° C. until ready for further analysis with ELISA technique. After CSF sampling, each mouse was placed in dorsal recumbence, thorax was opened and a 26-gauge needle attached to a 1 cc syringe was inserted into the right cardiac ventricular chamber. Light suction was applied to the needle and blood was collected into EDTA and consequently used to obtain plasma. […]
vii) Determination of Aβ1-40 and Aβ1-42 • In four different brain homogenate fractions of each Tg mouse as well as in CSF samples the Aβ1-40 and Aβ1-42 levels were evaluated with ELISA technique. […]
(In general: ELISA stands for enzyme-linked immunosorbent assay.)

The nature of series [2]: Stability of XG-102 stock solution and diluted formulations. Type of series: physicochemical. An excerpt: a) Materials and Methods • i) Animals • A total of twenty (20) male db/db mice (8 weeks old) were obtained from Charles River (Germany). Upon arrival, animals were group housed (n=6-7/group) and offered regular rodent chow (Altromin standard #1324 chow; C. Petersen, Ringsted, Denmark) and water ad libitum unless otherwise stated. • The mice were housed under a 12:12 L/D cycle (lights on at 4:00 and lights off at 16:00) and in temperature and humidity controlled rooms. • ii) Groups and Randomization • On day −4, mice were randomized according to blood glucose level (fasted; blood glucose measured on Biosen S line analyzer (EKF diagnostic, Germany) to participate in one of the following drug treatment groups (n=6): • 1) Vehicle control, S.C. (physiological saline) • 2) XG-102 (SEQ ID NO: 233); 1 mg/kg; s.c. • 3) XG-102 (SEQ ID NO: 233); 10 mg/kg; s.c • All doses listed were calculated for the free-base. Drug purity: 95.28%, peptide content: 78.0%. All compounds were administered sub-cutaneously (s.c.) in a volume of 3 ml/kg. The formulation instructions for vehicle control and XG-102 (SEQ ID NO: 233) were as follows: • First, XG-102 (SEQ ID NO: 233) was dissolved in the vehicle. The formulations (concentrations of 0.33 and 3.3 mg/ml, corresponding to the doses of 1 and 10 mg/kg, respectively) were prepared according to the procedure detailed below. Concentrations were calculated and expressed taking into account test items purity and peptide content (multiplier coefficient was 1.346). • Preparation of a stock solution: the freeze-dried test compound XG-102 (SEQ ID NO: 233) is thawed for one hour minimum and prepared as a stock solution in the vehicle at 1 mM (corresponding to 3.823 mg/mL). Aliquots are prepared for each treatment day and stored at approximately −80° C. Dilutions of this stock solution to the required concentrations are performed on each treatment day; • Storage of the stock solution: at approximately −80° C.; • Storage of the diluted preparations: at room temperature for 24 hours maximum. • Prior to solubilisation, the powder was stored at −20° C. […]

“Also recorded” adds a separate entry of the source. Ends that are not written are not given here.

Turning to “dqsrpvqpflnIttprkprpprrrqrrkkrg (DQSRPVQPFLNLTTPRKPRPPRRRQRRKKRG; not fully specified (some residues); printed as dqsrpvqpflnIttprkprpprrrqrrkkrg) [XG-102]”, the incorporation into cells result in series [1] is given as “strongly incorporated into primary macrophages”. The accumulation in liver result in the series with liver, Kupffer cells is “pronounced accumulation of XG-102 in the liver, and especially, in the Kupffer cells”. In addition, the “Aβ1-42 levels in Triton X-100 fraction” value with Aβ1-40 and Aβ1-42 levels (0.1 mg/kg) is “a significant reduction compared to the vehicle group; also recorded: a decrease in the Triton X-100 fraction”. Moreover, the “CSF Aβ1-40 and Aβ1-42 levels” value in the series with Aβ1-40 and Aβ1-42 levels (0.1 and 10 mg/kg) is listed as “significantly decreased in CSF compared to vehicle group”. In addition, the “brain homogenate Aβ1-40 levels” value in the series on Aβ1-40 and Aβ1-42 levels (four brain homogenate fractions) is “did not affect brain homogenate Aβ1-40 levels”. The “stability of the stock solution” value in series [2] (1 mM in vehicle, approximately −80° C.) is on record as 3 months. Besides, in series [2] (4-8° C.), the “storage of unused diluted material” value was “up to 7 days”. Also, the “stability of the diluted formulations for animal dosing” value in series [2] (room temperature) came to 24 h.

For the origin of these results see patent US10023615B2, “Efficient transport into white blood cells” (priority 2008, dated 2018).
